Test results published in patent US9296741B2, “Bromodomain inhibitors” (priority 2012, dated 2016).
Where two headings read alike, the source gives them in different places. Marks after values point to notes of the source that are not given here.

Assays:
[1] = Rat liver microsome stability assay; format: in vitro ADME; conditions: rat liver microsomes (male Sprague-Dawley), 0.5 μM test compound, 0.25 mg/mL microsomal protein, pH 7.4, 37° C.; read-out: Stability in rat liver microsomes (t1/2 in minutes)
[2] = system: breast cancer cell line MX-1; assay: MX-1 cell line proliferation assay; format: cell-based, human; conditions: Homo sapiens, MX1, 72 h; MX-1 cells, 3-day proliferation, Cell Titer Glo; read-out: Cellular proliferation: EC50
[3] = Human liver microsome stability assay; format: in vitro ADME; conditions: both sexes, human, microsomes, pH 7.4
[4] = system: LPS induced IL-6 production; assay: LPS (lipopolysaccharide) induced IL-6 production mouse assay; format: in vivo; conditions: Mus musculus, read-out: Inhibition of LPS induced IL-6 production in Mice, % inhibition at 3 mg/kg; 3 mg/kg oral, 1 h before LPS; serum IL-6 2 h after LPS
[5] = system: OPM-2 human multiple myeloma xenograft tumors; assay: animal or person; conditions: Mus musculus, OPM-2, po, PO, vehicle A; for change in vivo at 1 mg/kg / inhibition in vivo at 1 mg/kg: 1 mg/kg/day; for change in vivo at 3 mg/kg / inhibition in vivo at 3 mg/kg: 3 mg/kg/day
[6] = system: MX-1 human breast cancer xenograft tumors; assay: Xenograft tumor growth inhibition assay, MX-1; format: in vivo, mouse; conditions: MX-1, PO, vehicle F
[7] = biological target: human BRD4 second bromodomain (BDII_E352-M457) (Homo sapiens (Human), UniProt O60885); assay: TR-FRET bromodomain binding assay, BRD4 second bromodomain
[8] = Mouse liver microsome stability assay; format: in vitro ADME; conditions: male, CD1, mouse, microsomes, pH 7.4
[9] = biological target: human BRD4 first bromodomain (BDI_K57-E168) (Homo sapiens (Human), UniProt O60885); assay: TR-FRET bromodomain binding assay, BRD4 first bromodomain
SK-LMS-1 = assay: Proliferation panel assay, Sarcoma SK-LMS-1; format: cell-based; conditions: Homo sapiens, read-out: Cellular Proliferation EC50
OPM2 = assay: Proliferation panel assay, Multiple Myeloma OPM2; format: cell-based; conditions: Homo sapiens, OPM-2, read-out: Cellular Proliferation EC50
NCI-H929 = assay: Proliferation panel assay, Multiple Myeloma NCI-H929; format: cell-based; conditions: Homo sapiens, read-out: Cellular Proliferation EC50
HPAC = assay: Proliferation panel assay, Pancreas HPAC; format: cell-based; conditions: Homo sapiens, read-out: Cellular Proliferation EC50
GEO = assay: Proliferation panel assay, Colon GEO; format: cell-based; conditions: read-out: Cellular Proliferation EC50
D54MG = assay: Proliferation panel assay, Glioblastoma D54MG; format: cell-based; conditions: read-out: Cellular Proliferation EC50
H1975 = assay: Proliferation panel assay, NSCLC H1975; format: cell-based; conditions: Homo sapiens, NCI-H1975, read-out: Cellular Proliferation EC50
FaDu = assay: Proliferation panel assay, Head & Neck FaDu; format: cell-based; conditions: Homo sapiens, read-out: Cellular Proliferation EC50
SKM1 = assay: Proliferation panel assay, AML SKM1; format: cell-based; conditions: Homo sapiens, SKM-1, read-out: Cellular Proliferation EC50
H1299 = assay: Proliferation panel assay, NSCLC H1299; format: cell-based; conditions: Homo sapiens, NCI-H1299, read-out: Cellular Proliferation EC50
DLD-1 = assay: Proliferation panel assay, Colon DLD-1; format: cell-based; conditions: Homo sapiens, read-out: Cellular Proliferation EC50
H460 = assay: Proliferation panel assay, NSCLC H460; format: cell-based; conditions: Homo sapiens, NCI-H460, read-out: Cellular Proliferation EC50
EJ-1 = assay: Proliferation panel assay, Bladder EJ-1; format: cell-based; conditions: EJ1, read-out: Cellular Proliferation EC50
BxPC3FP5 = assay: Proliferation panel assay, Pancreas BxPC3FP5; format: cell-based; conditions: read-out: Cellular Proliferation EC50
A-375 = assay: Proliferation panel assay, Melanoma A-375; format: cell-based; conditions: Homo sapiens, read-out: Cellular Proliferation EC50
786-0 = assay: Proliferation panel assay, RCC 786-0; format: cell-based; conditions: Homo sapiens, read-out: Cellular Proliferation EC50
Ly18 = assay: Proliferation panel assay, NHL Ly18; format: cell-based; conditions: read-out: Cellular Proliferation EC50
MDAMB453 = assay: Proliferation panel assay, Breast MDAMB453; format: cell-based; conditions: Homo sapiens, MDA-MB-453, read-out: Cellular Proliferation EC50
HepG2 = assay: Proliferation panel assay, Hepatocellular HepG2; format: cell-based; conditions: Homo sapiens, read-out: Cellular Proliferation EC50
Raji = assay: Proliferation panel assay, AML Raji; format: cell-based; conditions: Homo sapiens, Burkitt lymphoma, read-out: Cellular Proliferation EC50
MDAMB231 = assay: Proliferation panel assay, Breast MDAMB231; format: cell-based; conditions: Homo sapiens, MDA-MB-231, read-out: Cellular Proliferation EC50
PC3M = assay: Proliferation panel assay, Prostate PC3M; format: cell-based; conditions: Homo sapiens, PC-3M, read-out: Cellular Proliferation EC50
Ramos = assay: Proliferation panel assay, NHL Ramos; format: cell-based; conditions: Homo sapiens, read-out: Cellular Proliferation EC50
RPMI-8226 = assay: Proliferation panel assay, Multiple Myeloma RPMI-8226; format: cell-based; conditions: Homo sapiens, read-out: Cellular Proliferation EC50
[10] = system: rat collagen induced arthritis (rCIA) paw swelling; conditions: rCIA, dosed at 3 mg/kg (positive control) once daily day 10-17
[11] = system: SKM1 human cancer cell xenograft; assay: Xenograft efficacy study, SKM1; format: in vivo, mouse
[12] = system: MV4-11 human cancer cell xenograft; assay: Xenograft efficacy study, MV4-11; format: in vivo, mouse; conditions: 250 mg/kg/day, IP, BID Q7Dx3, vehicle C
[13] = 3 mg/kg/day, QD (5 on, 3 off, 5 on)
[14] = read-out: % TGD (tumor growth delay), OPM-2, QDx21
[15] = read-out: % TGI (tumor growth inhibition), OPM-2, QDx21
[16] = 6 mg/kg/day, IV, Q7Dx3, vehicle C
[17] = 250 mg/kg/day, IP, BID Q7Dx3, vehicle C

Cn1cc(-c2cc(NS(C)(=O)=O)ccc2Oc2ccc(F)cc2F)c2cc[nH]c2c1=O [Example 27, N-[4-(2,4-difluorophenoxy)-3-(6-methyl-7-oxo-6,7-dihydro-1H-pyrrolo[2,3-c]pyridin-4-yl)phenyl]methanesulfonamide]
half-life at 0.5 μM [1]: > 120 min | EC50 [2]: 0.0317 µM | half-life at 0.5 μM [3]: 32 min | inhibition in vivo at 3 mg/kg [4]: 89% | change in vivo at 1 mg/kg ([5]; read-out: % TGD (tumor growth delay), OPM-2, QDx14): -2% | change in vivo at 3 mg/kg ([5]; read-out: % TGD (tumor growth delay), OPM-2, QD (5 on, 3 off, 5 on)): 7% | inhibition in vivo at 1 mg/kg ([5]; read-out: % TGI (tumor growth inhibition), OPM-2, QDx14): 59% | inhibition in vivo at 3 mg/kg ([5]; read-out: % TGI (tumor growth inhibition), OPM-2, QD (5 on, 3 off, 5 on)): 67% | % TGD (tumor growth delay) ([6]; 0.3 mg/kg/day, QD): 35% | % TGI (tumor growth inhibition) ([6]; 0.3 mg/kg/day, QD): 38** % | % removed from study ([6]; 0.3 mg/kg/day, QD): 0% | % TGD (tumor growth delay) ([6]; 1 mg/kg/day, QD): 13% | % TGI (tumor growth inhibition) ([6]; 1 mg/kg/day, QD): 57*** % | % removed from study ([6]; 1 mg/kg/day, QD): 0% | % TGI (tumor growth inhibition) [6, 13]: 69*** % | % removed from study [6, 13]: 0% | Ki [7]: 0.0022 µM | half-life at 0.5 μM [8]: 59 min | Ki [9]: 0.0025 µM

Cn1nc(-c2cc(NS(C)(=O)=O)ccc2Oc2ccccc2)c2cc(C(N)=O)[nH]c2c1=O [Example 78, 6-methyl-4-{5-[(methylsulfonyl)amino]-2-phenoxyphenyl}-7-oxo-6,7-dihydro-1H-pyrrolo[2,3-d]pyridazine-2-carboxamide]
EC50 (SK-LMS-1): 0.934 µM | EC50 (OPM2): 0.039 µM | EC50 (NCI-H929): 0.154 µM | EC50 [2]: 0.4 µM | EC50 (HPAC): 1.19 µM | EC50 (GEO): 1.29 µM | EC50 (D54MG): 2.3 µM | EC50 (H1975): 1.37 µM | EC50 (FaDu): 0.39 µM | EC50 (SKM1): 0.058 µM | EC50 (H1299): 2.57 µM | EC50 (DLD-1): 4.97 µM | Ki [7]: 0.0018 µM | EC50 (H460): > 10 µM | EC50 (EJ-1): 2.09 µM | EC50 (BxPC3FP5): 0.74 µM | EC50 (A-375): 3.61 µM | EC50 (786-0): 0.884 µM | EC50 (Ly18): 0.42 µM | EC50 (MDAMB453): 0.24 µM | Ki [9]: 0.0025 µM | EC50 (HepG2): 0.885 µM | EC50 (Raji): 0.084 µM | EC50 (MDAMB231): 1.22 µM | EC50 (PC3M): 8.11 µM | EC50 (Ramos): 0.32 µM | EC50 (RPMI-8226): 1.4 µM

Cn1cc(-c2cc(S(N)(=O)=O)ccc2Oc2ccc(F)cc2F)c2cc[nH]c2c1=O [Example 146, 4-(2,4-difluorophenoxy)-3-(6-methyl-7-oxo-6,7-dihydro-1H-pyrrolo[2,3-c]pyridin-4-yl)benzenesulfonamide]
half-life at 0.5 μM [1]: 52 min | EC50 [2]: 0.0609 µM | half-life at 0.5 μM [3]: > 120 min | inhibition in vivo at 3 mg/kg [4]: 80% | change in vivo at 1 mg/kg [5, 14]: 35% | change in vivo at 3 mg/kg [5, 14]: 78% | inhibition in vivo at 1 mg/kg [5, 15]: 39% | inhibition in vivo at 3 mg/kg [5, 15]: 76% | Ki [7]: 0.0019 µM | half-life at 0.5 μM [8]: 55 min | Ki [9]: 0.0075 µM

CCS(=O)(=O)c1ccc(OC2CCC(F)(F)CC2)c(-c2cn(C)c(=O)c3[nH]ccc23)c1 [Example 169, 4-{2-[(4,4-difluorocyclohexyl)oxy]-5-(ethylsulfonyl)phenyl}-6-methyl-1,6-dihydro-7H-pyrrolo[2,3-c]pyridin-7-one]
half-life at 0.5 μM [1]: 34 min | EC50 [2]: 0.0053 µM | half-life at 0.5 μM [3]: 86 min | inhibition in vivo at 3 mg/kg [4]: 67% | change in vivo at 3 mg/kg [5, 14]: 77% | inhibition in vivo at 3 mg/kg [5, 15]: 69% | Ki [7]: 0.00086 µM | half-life at 0.5 μM [8]: 38 min | Ki [9]: 0.00088 µM

CCS(=O)(=O)c1ccc(NCC2CC2)c(-c2cn(C)c(=O)c3[nH]ccc23)c1 [Example 200, 4-{2-[(cyclopropylmethyl)amino]-5-(ethylsulfonyl)phenyl}-6-methyl-1,6-dihydro-7H-pyrrolo[2,3-c]pyridin-7-one]
half-life at 0.5 μM [1]: 31 min | EC50 [2]: 0.0113 µM | half-life at 0.5 μM [3]: > 120 min | inhibition in vivo at 3 mg/kg [4]: 75% | change in vivo at 1 mg/kg [5, 14]: 44% | change in vivo at 3 mg/kg [5, 14]: 82% | inhibition in vivo at 1 mg/kg [5, 15]: 50% | inhibition in vivo at 3 mg/kg [5, 15]: 80% | Ki [7]: 0.0011 µM | half-life at 0.5 μM [8]: > 120 min | Ki [9]: 0.00086 µM

Cn1cc(-c2cc(CS(C)(=O)=O)cnc2Oc2ccc(F)cc2F)c2cc[nH]c2c1=O [Example 311, 4-{2-(2,4-difluorophenoxy)-5-[(methylsulfonyl)methyl]pyridin-3-yl}-6-methyl-1,6-dihydro-7H-pyrrolo[2,3-c]pyridin-7-one]
half-life at 0.5 μM [1]: 83 min | EC50 [2]: 0.0224 µM | half-life at 0.5 μM [3]: > 120 min | inhibition in vivo at 3 mg/kg [4]: 74% | change in vivo at 1.25 mg/kg ([5]; read-out: % TGD (tumor growth delay), OPM-2, 1.25 mg/kg/day, QDx21): 90% | inhibition in vivo at 1.25 mg/kg ([5]; read-out: % TGI (tumor growth inhibition), OPM-2, 1.25 mg/kg/day, QDx21): 60% | Ki [7]: 0.0045 µM | half-life at 0.5 μM [8]: > 120 min | Ki [9]: 0.0148 µM

C[C@]12C=CC(=O)C=C1CC[C@@H]1[C@@H]2[C@@H](O)C[C@@]2(C)[C@H]1CC[C@]2(O)C(=O)CO [Prednisolone, prednisolone, reference compound]
AUC of Paw Swelling, MEAN [10]: 0.67** ml-day

Nc1ncn([C@@H]2O[C@H](CO)[C@@H](O)[C@H]2O)c(=O)n1 [azacitidine]
% TGD (tumor growth delay) [11, 16]: 98* % | % TGI (tumor growth inhibition) [11, 16]: 54** % | % removed from study [11, 16]: 0%

Nc1ccn([C@@H]2O[C@H](CO)[C@@H](O)[C@@H]2O)c(=O)n1 [cytarabine]
% TGD (tumor growth delay) [11, 17]: 30% | % TGI (tumor growth inhibition) [11, 17]: 20% | % removed from study [11, 17]: 0% | % TGD (tumor growth delay) [12]: 37*** % | % TGI (tumor growth inhibition) [12]: 47*** % | % removed from study [12]: 0%
